pIC50: −log10 of the molar value. Like-named read-outs stand apart in the source and are kept apart here.
Tests used:
Format in all cases: cell-based
[1] = biological target: T1, pERK1/2 (Thr202/Tyr204), NCI-1H441 (KRAS G12V) (Homo sapiens, UniProt P01116, G12V); assay: Assay of intracellular pERK1/2 (Thr202/Tyr204) phosphorylation in NCI-H441 cells (KRAS G12V)
T1 construct: pERK1/2 HTRF read-out
How it was run: (§1)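 HTRF detection of Thr202/Tyr204-phosphorylated ERK1/2 (665/615 nm ratio) in lysates from cells treated 2 days with serially 3-fold diluted compound.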

[2] = biological target: T2, pERK1/2 (Thr202/Tyr204), NCI-1H358 (KRAS G12C) (Homo sapiens, UniProt P01116, G12C); assay: Assay of intracellular pERK1/2 (Thr202/Tyr204) phosphorylation in NCI-H358 cells (KRAS G12C)
T2 construct: pERK1/2 HTRF read-out
T2 sequence (P01116 1-188 isoform P01116-2 G12C): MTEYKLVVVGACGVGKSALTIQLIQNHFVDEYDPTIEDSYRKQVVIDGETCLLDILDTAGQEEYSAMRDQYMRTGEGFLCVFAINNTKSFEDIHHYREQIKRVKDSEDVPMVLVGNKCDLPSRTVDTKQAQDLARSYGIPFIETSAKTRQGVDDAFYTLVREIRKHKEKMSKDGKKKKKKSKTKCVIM
How it was run: as §1

[3] = biological target: T3, pERK1/2 (Thr202/Tyr204), PANC-1 (KRAS G121D) (Homo sapiens, UniProt P01116, G12D); assay: Assay of intracellular pERK1/2 (Thr202/Tyr204) phosphorylation in PANC-1 cells (KRAS G12D)
T3 construct: pERK1/2 HTRF read-out
T3 sequence (P01116 1-188 isoform P01116-2 G12D): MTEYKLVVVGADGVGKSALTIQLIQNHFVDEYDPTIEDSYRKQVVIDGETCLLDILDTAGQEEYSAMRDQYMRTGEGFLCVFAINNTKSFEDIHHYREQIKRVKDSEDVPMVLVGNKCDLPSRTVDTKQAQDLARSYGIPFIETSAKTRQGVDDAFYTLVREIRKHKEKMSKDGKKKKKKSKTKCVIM
How it was run: as §1

[4] = pERK1/2, 2 days, read-out: NCI-H441 (KRAS G12V) IC50
[5] = pERK1/2, 2 days, read-out: NCI-H358 (KRAS G12C) IC50
[6] = pERK1/2, 2 days, read-out: PANC-1 (KRAS G12D) IC50

T1 sequence (P01116 1-188 isoform P01116-2 G12V): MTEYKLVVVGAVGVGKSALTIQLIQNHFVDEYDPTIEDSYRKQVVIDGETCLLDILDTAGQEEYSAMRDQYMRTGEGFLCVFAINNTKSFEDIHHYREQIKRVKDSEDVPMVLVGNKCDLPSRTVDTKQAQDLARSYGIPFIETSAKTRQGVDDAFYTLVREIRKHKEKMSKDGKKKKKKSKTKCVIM

Structure (SMILES) | pIC50 [1, 4] | pIC50 [2, 5] | pIC50 [3, 6] | pIC50 ([1]; read-out: NCI-H441 (KRAS G12V) IC50, pERK1/2, 2 days) | pIC50 ([2]; read-out: NCI-H358 (KRAS G12C) IC50, pERK1/2, 2 days) | pIC50 ([3]; read-out: PANC-1 (KRAS G12D) IC50, pERK1/2, 2 days)
[2H]C1([2H])CC[C@@]2(C([2H])([2H])Oc3nc4c5c(nc(-c6cc(N)cc(C)c6C(F)(F)F)c(F)c5n3)OCCN4C(C)c3cccnc3N)C[C@@H](F)CN12 (single isomer, unassigned) [Compound 115, 3-((R or S)-1-(5-(5-amino-3-methyl-2-(trifluoromethyl)phenyl)-4-fluoro-2-(((2R,7aS)-2-fluorotetrahydro-1H-pyrrolizin-7a(5H)-yl-5,5-d2)methoxy-d2)-8,9-dihydro-10H-7-oxa-1,3,6,10-tetraazacyclohepta[de]naphthalen-10-yl)ethyl)pyridin-2-amine] | 9.70 | 9.70 | 9.05 |  |  | 
CC(c1cccnc1N)N1CCOc2nc(-c3cc(O)cc(Cl)c3C3CC3)c(F)c3nc(OC[C@@H]4CCCN4C)nc1c23 (single isomer, unassigned) [Compound 31, 3-(10-((R or S)-1-(2-aminopyridin-3-yl)ethyl)-4-fluoro-2-(((S)-1-methylpyrrolidin-2-yl)methoxy)-9,10-dihydro-8H-7-oxa-1,3,6,10-tetraazacyclohepta[de]naphthalen-5-yl)-5-chloro-4-cyclopropylphenol] | < 6.00 | 6.39 | < 6.00 |  |  | 
Cc1cc(O)cc(-c2nc3c4c(nc(OC[C@@]56CCCN5C[C@H](F)C6)nc4c2F)N(C(C)c2cccnc2N)CCO3)c1C1CC1 (stereo partly drawn) [Compound 159] | 9.00 | 9.22 | 7.82 |  |  | 
[2H]C([2H])(Oc1nc2c3c(nc(-c4cc(N)c(F)c(C)c4C(F)(F)F)c(F)c3n1)OCCN2C(C)c1cccnc1N)[C@@H]1C[C@@H](F)CN1C([2H])([2H])[2H] (stereo partly drawn) [Compound 149] | 9.05 | 9.52 | 8.15 |  |  | 
Cc1c(F)c(N)cc(-c2nc3c4c(nc(OC[C@@]56CCCN5C[C@H](F)C6)nc4c2F)N(C(C)c2cccnc2N)C[C@H](C)O3)c1C(F)(F)F (single isomer, unassigned) [Compound 254, 3-((R or S)-1-((S)-5-(5-amino-4-fluoro-3-methyl-2-(trifluoromethyl)phenyl)-4-fluoro-2-(((2R,7aS)-2-fluorotetrahydro-1H-pyrrolizin-7a(5H)-yl)methoxy)-8-methyl-8,9-dihydro-10H-7-oxa-1,3,6,10-tetraazacyclohepta[de]naphthalen-10-yl)ethyl)pyridin-2-amine] | 8.00 | 8.70 | 7.37 |  |  | 
CNC(=O)Oc1cc(Cl)c(C2CC2)c(-c2nc3c4c(nc(OC[C@@]56CCCN5C[C@H](F)C6)nc4c2F)N(C(C)c2cccnc2N)[C@@H](C)CO3)c1 (stereo partly drawn) [Compound 295] |  |  |  | 9.00 | 9.40 | 9.30
C#Cc1c(F)ccc2cc(O)cc(-c3nc4c5c(nc(OC[C@@H]6C[C@@H](F)CN6C)nc5c3F)N(C(C)c3cccnc3N)[C@@H](C)CO4)c12 (single isomer, unassigned) [Compound 284, 4-((S)-10-((R or S)-1-(2-aminopyridin-3-yl)ethyl)-4-fluoro-2-(((2S,4R)-4-fluoro-1-methylpyrrolidin-2-yl)methoxy)-9-methyl-9,10-dihydro-8H-7-oxa-1,3,6,10-tetraazacyclohepta[de]naphthalen-5-yl)-5-ethynyl-6-fluoronaphthalen-2-ol] | 9.30 | 9.70 | 9.52 |  |  | 
[2H]C([2H])(Oc1nc2c3c(nc(-c4cc(N)cc(Cl)c4C(F)(F)F)c(F)c3n1)OCCN2C(C)c1cccnc1N)[C@@H]1CCC([2H])([2H])N1C([2H])([2H])[2H] (stereo partly drawn) [Compound 112] | 8.70 | 9.00 | 7.47 |  |  | 
[2H]C([2H])(Oc1nc2c3c(nc(-c4cc(N)cc(C)c4C(F)(F)F)c(F)c3n1)OCCN2C(C)c1cccnc1N)[C@@H]1C[C@@H](F)CN1C([2H])([2H])[2H] (single isomer, unassigned) [Compound 132, 3-((R or S)-1-(5-(5-amino-3-methyl-2-(trifluoromethyl)phenyl)-4-fluoro-2-(((2S,4R)-4-fluoro-1-(methyl-d3)pyrrolidin-2-yl)methoxy-d2)-8,9-dihydro-10H-7-oxa-1,3,6,10-tetraazacyclohepta[de]naphthalen-10-yl)ethyl)pyridin-2-amine] | 9.00 | 9.40 | 7.85 |  |  | 
C[C@H](c1cccnc1N)N1CCOc2nc(-c3c(C(F)(F)F)ccc4[nH]ncc34)c(F)c3nc(OC[C@@H]4CCN4CC(F)F)nc1c23 (single isomer, unassigned) [Compound 38, 3-((1R or 1S)-1-(2-(((S)-1-(2,2-difluoroethyl)azetidin-2-yl)methoxy)-4-fluoro-5-(5-(trifluoromethyl)-1H-indazol-4-yl)-8,9-dihydro-10H-7-oxa-1,3,6,10-tetraazacyclohepta[de]naphthalen-10-yl)ethyl)pyridin-2-amine] | 6.19 | 6.23 | < 6.00 |  |  | 
CC(c1cccnc1N)N1CCOc2nc(-c3cc(O)cc(Cl)c3C3CC3)c(F)c3nc(OC[C@@H]4CC(F)(F)CN4C)nc1c23 (single isomer, unassigned) [Compound 55, 3-(10-((R or S)-1-(2-aminopyridin-3-yl)ethyl)-2-(((S)-4,4-difluoro-1-methylpyrrolidin-2-yl)methoxy)-4-fluoro-9,10-dihydro-8H-7-oxa-1,3,6,10-tetraazacyclohepta[de]naphthalen-5-yl)-5-chloro-4-cyclopropylphenol] | 6.29 | 6.49 | < 6.00 |  |  | 
Cc1cc(N)cc(-c2nc3c4c(nc(OC[C@@]56CCCN5C[C@H](F)C6)nc4c2F)N(C(C)c2cccnc2N)CCCO3)c1C(F)(F)F (single isomer, unassigned) [Compound 167, 3-((R or S)-1-(5-(5-amino-3-methyl-2-(trifluoromethyl)phenyl)-4-fluoro-2-(((2R,7aS)-2-fluorotetrahydro-1H-pyrrolizin-7a(5H)-yl)methoxy)-9,10-dihydro-7-oxa-1,3,6,11-tetraazacycloocta[de]naphthalen-11(8H)-yl)ethyl)pyridin-2-amine] | < 7.00 | < 7.00 | < 7.00 |  |  | 
CC(c1cccnc1N)N1c2nc(OC[C@@]34CCCN3C[C@H](F)C4)nc3c(F)c(-c4c(C(F)(F)F)cnc5[nH]ccc45)nc(c23)OC[C@@H]1C (stereo partly drawn) [Compound 323] | 8.70 | 9.22 | 8.00 |  |  | 
Cc1c(F)c(N)cc(-c2nc3c4c(nc(OC[C@@]56CCCN5C[C@H](F)C6)nc4c2F)N(C(C)c2cccnc2N)[C@@H](C)CO3)c1C(F)(F)F (single isomer, unassigned) [Compound 250, 3-((R or S)-1-((S)-5-(5-amino-4-fluoro-3-methyl-2-(trifluoromethyl)phenyl)-4-fluoro-2-(((2R,7aS)-2-fluorotetrahydro-1H-pyrrolizin-7a(5H)-yl)methoxy)-9-methyl-8,9-dihydro-10H-7-oxa-1,3,6,10-tetraazacyclohepta[de]naphthalen-10-yl)ethyl)pyridin-2-amine] | 9.52 | 10.00 | 9.40 |  |  | 
Cc1cc2[nH]nc(C)c2c(-c2cc3nc(OC[C@@]45CCCN4C[C@H](F)C5)nc4c3c(n2)OC[C@H](C)N4C(C)c2cccnc2N)c1C(F)(F)F (stereo partly drawn) [Compound 385] | 8.70 | 9.15 | 9.40 |  |  | 
CC(c1cccnc1N)N1c2nc(OC[C@@]34CCCN3C[C@H](F)C4)nc3c(F)c(-c4c5cccnc5cc5[nH]ncc45)nc(c23)OC[C@@H]1C (stereo partly drawn) [Compound 375] | 7.03 | 8.10 | < 7.00 |  |  | 
CC(c1cccnc1N)N1CCOc2nc(-c3cc(N)cc(Cl)c3C3CC3)c(F)c3nc(OC[C@@]45CCCN4C[C@H](F)C5)nc1c23 (single isomer, unassigned) [Compound 75, 3-((R or S)-1-(5-(5-amino-3-chloro-2-cyclopropylphenyl)-4-fluoro-2-(((2R,7aS)-2-fluorotetrahydro-1H-pyrrolizin-7a(5H)-yl)methoxy)-8,9-dihydro-10H-7-oxa-1,3,6,10-tetraazacyclohepta[de]naphthalen-10-yl)ethyl)pyridin-2-amine] | 7.96 | 8.30 | 7.40 |  |  | 
CC(c1cccnc1N)N1c2nc(OC[C@@]34CCCN3C[C@H](F)C4)nc3c(F)c(-c4c5ccccc5cc5[nH]ncc45)nc(c23)OC[C@@H]1C (stereo partly drawn) [Compound 348] | 9.30 | 9.70 | 9.30 |  |  | 
C#Cc1c(F)ccc2cc(O)cc(-c3nc4c5c(nc(OC[C@@]67CCCN6C[C@H](F)C7)nc5c3F)N(C(C)c3cccnc3N)[C@@H](C)CO4)c12 (single isomer, unassigned) [Compound 273, 4-((S)-10-((R or S)-1-(2-aminopyridin-3-yl)ethyl)-4-fluoro-2-(((2R,7aS)-2-fluorotetrahydro-1H-pyrrolizin-7a(5H)-yl)methoxy)-9-methyl-9,10-dihydro-8H-7-oxa-1,3,6,10-tetraazacyclohepta[de]naphthalen-5-yl)-5-ethynyl-6-fluoronaphthalen-2-ol] | 9.00 | 9.30 | 9.40 |  |  | 
[2H]C1([2H])CC[C@@]2(C([2H])([2H])Oc3nc4c5c(nc(-c6cc(N)c(F)c(C)c6C(F)(F)F)c(F)c5n3)OCCN4C(C)c3cccnc3N)C[C@@H](F)CN12 (stereo partly drawn) [Compound 119] | 9.40 | 9.52 | 8.70 |  |  | 
CC(c1cccnc1N)N1CCOc2nc(-c3cc(N)cc(Cl)c3C3CC3)c(F)c3nc(OC[C@@H]4CCCN4C)nc1c23 (stereo partly drawn) [Compound 67] | 8.10 | 8.30 | 7.09 |  |  | 

Source: patent US20260356851A1, “TRICYCLIC COMPOUNDS AND USES THEREOF” (HUTCHMED LIMITED, priority 2023, published 2026)
